Assay results from ChEMBL document CHEMBL4373652, “Mechanism of thienopyridone and iminothienopyridinedione inhibition of protein phosphatases” (Medchemcomm, 2019).
The source made the active and inactive calls. No cut-off for these calls is given here.

Columns and labels:
[1] = Induction of TCEP oxidation assessed as increase in rate of reduction of resazurin at 5 uM incubated up to 2 hrs by resazurin based assay
[2] = Induction of TCEP oxidation assessed as increase in rate of reduction of resazurin at 5 uM after 3 to 5 secs by resazurin based assay
Mus musculus = organism: Mus musculus; assay: Inhibition of mouse His-tagged PRL3 C49A mutant at 0.6 uM using DiFMUP as substrate preincubated with enzyme for 10 mins prior to substrate addition by fluorescence based assay relative to control
[3] = Induction of glutathione oxidation at 1 mM incubated for 2 hrs in 80% d6-DMSO and 20% D2O by 15N-1H NMR spectroscopy relative to control
[4] = Induction of TCEP oxidation at 1 mM in 80% d6-acetone and 20% d6-DMSO incubated for 2 hrs by 15N-1H NMR spectroscopy relative to control
[5] = target: T1, Tyrosine-protein phosphatase non-receptor type 1 (Homo sapiens) (UniProt P18031); assay: Inhibition of human PTP1B at 25 nM using DiFMUP as substrate preincubated with enzyme prior to substrate addition by fluorescence based assay; settings: TDE = time-dependent effect
T1 sequence (whole entry): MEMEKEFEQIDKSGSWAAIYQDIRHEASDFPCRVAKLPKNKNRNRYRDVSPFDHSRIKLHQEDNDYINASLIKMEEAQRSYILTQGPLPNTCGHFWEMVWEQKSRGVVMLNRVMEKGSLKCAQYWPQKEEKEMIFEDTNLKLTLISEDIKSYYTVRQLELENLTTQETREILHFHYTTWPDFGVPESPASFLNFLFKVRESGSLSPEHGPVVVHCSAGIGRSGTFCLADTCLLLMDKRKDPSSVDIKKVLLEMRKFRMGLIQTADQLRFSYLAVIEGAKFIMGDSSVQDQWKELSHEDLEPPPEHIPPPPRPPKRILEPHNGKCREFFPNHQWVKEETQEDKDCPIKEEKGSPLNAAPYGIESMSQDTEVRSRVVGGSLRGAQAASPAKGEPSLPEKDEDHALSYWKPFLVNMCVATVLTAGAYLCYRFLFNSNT

[6] = target: Protein tyrosine phosphatase type IVA 3 (Mus musculus) (UniProt Q9D658); assay: Inhibition of mouse His-tagged wild type PRL3 at 0.6 uM using DiFMUP as substrate preincubated with enzyme for 10 mins prior to substrate addition by fluorescence based assay relative to control
[7] = target: T2, Receptor-type tyrosine-protein phosphatase O (Homo sapiens) (UniProt Q16827); assay: (§1) Inhibition of recombinant human N-terminal His-tagged PTPRO expressed in bacterial expression system assessed as enzyme residual activity at 2 uM using DiFMUP as substrate preincubated with enzyme for 2.5 hrs prior to substrate addition measured for 1 min by fluorescence based assay
T2 sequence (whole entry): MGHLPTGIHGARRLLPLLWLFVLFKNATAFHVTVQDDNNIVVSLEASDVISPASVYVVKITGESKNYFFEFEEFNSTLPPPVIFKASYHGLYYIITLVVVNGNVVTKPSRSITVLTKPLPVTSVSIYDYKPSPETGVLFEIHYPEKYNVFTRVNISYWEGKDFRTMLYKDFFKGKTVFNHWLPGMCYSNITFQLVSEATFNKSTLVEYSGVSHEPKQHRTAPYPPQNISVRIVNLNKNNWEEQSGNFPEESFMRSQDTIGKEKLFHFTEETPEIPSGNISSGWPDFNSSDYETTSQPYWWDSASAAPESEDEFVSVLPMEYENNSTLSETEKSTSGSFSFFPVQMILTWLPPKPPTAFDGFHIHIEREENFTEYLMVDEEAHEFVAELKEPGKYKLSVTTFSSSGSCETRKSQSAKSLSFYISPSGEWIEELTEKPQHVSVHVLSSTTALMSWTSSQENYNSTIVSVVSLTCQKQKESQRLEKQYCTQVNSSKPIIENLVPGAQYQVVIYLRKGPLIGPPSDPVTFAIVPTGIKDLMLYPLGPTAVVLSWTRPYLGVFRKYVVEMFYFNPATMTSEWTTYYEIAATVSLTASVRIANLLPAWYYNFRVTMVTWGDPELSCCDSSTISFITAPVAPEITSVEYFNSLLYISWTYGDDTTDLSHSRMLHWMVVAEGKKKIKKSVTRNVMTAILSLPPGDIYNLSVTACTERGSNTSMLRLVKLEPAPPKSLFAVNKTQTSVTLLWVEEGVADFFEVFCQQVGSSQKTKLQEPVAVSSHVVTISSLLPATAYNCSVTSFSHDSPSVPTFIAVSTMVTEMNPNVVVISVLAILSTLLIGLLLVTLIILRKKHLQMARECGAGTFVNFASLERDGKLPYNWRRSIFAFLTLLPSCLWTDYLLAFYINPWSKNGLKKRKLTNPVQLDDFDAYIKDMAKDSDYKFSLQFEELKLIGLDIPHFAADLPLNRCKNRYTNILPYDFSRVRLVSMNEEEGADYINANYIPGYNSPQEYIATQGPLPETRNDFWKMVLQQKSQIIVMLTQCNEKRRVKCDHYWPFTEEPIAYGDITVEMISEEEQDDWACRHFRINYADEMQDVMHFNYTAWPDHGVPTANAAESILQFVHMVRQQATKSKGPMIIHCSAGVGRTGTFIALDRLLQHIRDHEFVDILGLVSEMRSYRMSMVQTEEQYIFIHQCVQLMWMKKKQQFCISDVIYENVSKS

[8] = target: T3, Receptor-type tyrosine-protein phosphatase C (Homo sapiens) (UniProt P08575); assay: Inhibition of C-terminal 6His-tagged PTPRC (627-1228 residues) (unknown origin) expressed in Escherichia coli BL21 (DE3) at 2 uM using DiFMUP as substrate preincubated with enzyme and catalase for 2.5 hrs prior to substrate addition measured for 1 min by fluorescence based assay
T3 sequence (whole entry): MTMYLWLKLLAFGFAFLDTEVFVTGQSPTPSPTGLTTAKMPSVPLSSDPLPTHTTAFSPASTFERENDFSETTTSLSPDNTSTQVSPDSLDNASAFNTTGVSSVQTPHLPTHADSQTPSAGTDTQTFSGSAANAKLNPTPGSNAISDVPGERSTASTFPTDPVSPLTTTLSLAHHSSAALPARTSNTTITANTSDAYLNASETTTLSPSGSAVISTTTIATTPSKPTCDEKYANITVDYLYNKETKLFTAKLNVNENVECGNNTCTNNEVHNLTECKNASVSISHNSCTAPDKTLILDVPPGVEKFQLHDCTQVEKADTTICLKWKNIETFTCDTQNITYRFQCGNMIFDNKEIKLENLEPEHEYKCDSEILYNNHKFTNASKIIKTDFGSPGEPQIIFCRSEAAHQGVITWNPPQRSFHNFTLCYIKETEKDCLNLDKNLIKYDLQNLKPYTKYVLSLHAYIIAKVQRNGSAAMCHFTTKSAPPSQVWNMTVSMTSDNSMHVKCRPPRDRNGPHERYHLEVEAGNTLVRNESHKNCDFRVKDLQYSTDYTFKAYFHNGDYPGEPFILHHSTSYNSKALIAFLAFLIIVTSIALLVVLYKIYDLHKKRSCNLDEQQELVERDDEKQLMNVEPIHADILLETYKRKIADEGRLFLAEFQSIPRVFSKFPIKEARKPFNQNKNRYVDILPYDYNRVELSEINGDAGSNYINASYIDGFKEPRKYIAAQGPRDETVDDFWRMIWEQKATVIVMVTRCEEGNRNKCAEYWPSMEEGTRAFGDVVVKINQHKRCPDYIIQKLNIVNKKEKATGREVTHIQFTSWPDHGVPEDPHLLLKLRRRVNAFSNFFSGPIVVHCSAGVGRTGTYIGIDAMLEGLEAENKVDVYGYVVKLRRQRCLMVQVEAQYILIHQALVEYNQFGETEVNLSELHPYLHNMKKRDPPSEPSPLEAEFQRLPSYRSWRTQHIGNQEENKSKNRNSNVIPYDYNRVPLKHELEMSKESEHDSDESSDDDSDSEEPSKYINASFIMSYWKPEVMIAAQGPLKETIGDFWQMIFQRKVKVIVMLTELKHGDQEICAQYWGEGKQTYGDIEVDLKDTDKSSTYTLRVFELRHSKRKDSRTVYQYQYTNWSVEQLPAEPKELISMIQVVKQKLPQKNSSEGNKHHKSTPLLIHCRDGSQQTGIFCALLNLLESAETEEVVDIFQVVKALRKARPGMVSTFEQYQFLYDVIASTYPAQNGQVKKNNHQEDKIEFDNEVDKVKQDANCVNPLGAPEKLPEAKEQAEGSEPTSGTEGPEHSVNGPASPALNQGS

Homo sapiens = organism: Homo sapiens; assay: Inhibition of recombinant human C-terminal 6His-tagged PTPN22 G126V/V147G double mutant expressed in bacterial expression system assessed as rate of product DiFMU formed at 2 uM using DiFMUP as substrate preincubated with enzyme for 2.5 hrs followed by substrate addition measured for 1 min by fluorescence based assay (reference value: 11.9 nM/sec)
[9] = target: T2, Receptor-type tyrosine-protein phosphatase O (Homo sapiens); assay: as §1, with “rate of product DiFMU formed” for “enzyme residual activity”, “assay (reference value: 209.7 nM/sec)” for “assay”

Chain of Protein tyrosine phosphatase type IVA 3 (Mus musculus) (Q9D658 whole entry): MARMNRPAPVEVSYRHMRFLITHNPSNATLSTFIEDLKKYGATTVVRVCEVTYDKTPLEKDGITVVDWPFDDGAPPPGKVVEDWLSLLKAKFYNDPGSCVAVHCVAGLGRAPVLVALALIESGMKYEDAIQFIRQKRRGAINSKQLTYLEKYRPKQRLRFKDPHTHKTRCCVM

## Nc1c[nH]c(=O)c2cc(-c3ccccc3)sc12
[1]
  Activity: Active
[2]
  Activity: Active
Mus musculus
  inhibition: 10%
[3]
  Activity: 70%
[4]
  fold change (FC): 5
[5]
  inhibition: Tde
[6]
  inhibition: 55%

## N=C1C(=O)NC(=O)c2cc(-c3ccccc3)sc21
[7]
  Activity: 7.3%
[8]
  inhibition: inactive
[1]
  Activity: Active
Homo sapiens
  Activity: 0.3 nM/s
[9]
  Activity: 15.3 nM/s
[4]
  fold change (FC): 20
[5]
  inhibition: Tde
